Data on three molecules can be found in patent US12290512B2, “Gel composition with an anaesthetic effect of short and long term duration” (priority 2018, dated 2025).

The nature of the experiment: anaesthetic effect (onset and duration) of gel composition administered through the urethra. The settings on record: gel compositions comprising the anaesthetic. In kind it is in vivo.

Structures are written as SMILES.

Molecule `CCCN1CCCC[C@H]1C(=O)Nc1c(C)cccc1C` [ropivacaine] showed a duration of action of 2 to 10 h and an onset of action of 10 to 20 min. On to `CCN(CC)CC(=O)Nc1c(C)cccc1C` [lidocaine], for which the duration of action fell in the range of 0.25 to 0.333 h.

Consider `CCCCN1CCCCC1C(=O)Nc1c(C)cccc1C` (centres unmarked) [bupivacaine], for which the duration of action entry is listed as “up to 7 hours” and the onset of action was 7 to 10 min.
